Data on nine compounds can be found in patent publication US5773412A, “Use of peptides for altering αV β3 -mediated binding” (priority 1995, dated 1998).

Entries after “also recorded” stand apart in the source; their conditions may differ. Where a SMILES comes first, the peptide text is derived from it. Bridges are numbered along the chain shown (N, C = ends). [ ]: non-standard residue; d: D form. Tic = O=C(O)[C@@H]1Cc2ccccc2CN1; Pen = CC(C)(S)[C@H](N)C(=O)O; Mpa = O=C(O)CCS

For series [1], the system named is osteoclasts; αv β3 integrin receptor. Kind of series: Series of assays of Example II (summary of potency and selectivity, FIG. 2). Conditions: in words.
The conditions of series [2]: in vivo; Fisher et al.; cited from earlier work.
For series [3], the system named is osteoclasts. Conditions: in vitro; Sato et al., EP 437,367; cited from earlier work.
The nature of series [4]: Parathyroid hormone-induced hypercalcemia in mice. Format: in vivo. Conditions: parathyroidectomized Swiss-Webster mice, 4 hr peptide infusion, 0.2 mg PTH/kg i.v.; in words. The source says:
Parathyroid hormone (PTH) activates osteoclasts, which are involved in bone resorption. Associated with the increased osteoclast activity is an increase in serum calcium. The PTH-induced hypercalcemia assay measures the level of serum calcium, which is an indication of bone resorption in a subject (Fischer et al., Endocrinology 132:1411-1413 (1993), which is incorporated herein by reference).
Swiss-Webster mice, which had been parathyroidectomized two weeks prior to beginning the assay, were obtained from Taconic Lab Animals and Services (Germantown N.Y.). Femoral vein catheters (PE-50 fused with PE10 polyethylene tubing; Becton Dickinson; Parsippany, N.J.) were installed in the mice, flushed and locked with heparinized saline (1:10), sutured to adjacent muscle and internalized within the inguinal space of the incision before closing the incision with wound clips. […]
The experiment was initiated by feeding the mice a calcium-deficient diet overnight, then injecting the mice the following morning with a bolus of 0.2 mg PTH/kg (hPTH 1-34; Bachem; Torrance Calif.), intravenously. […] Various doses of a peptide or vehicle were infused into an animal for 4 hr, then ionized serum calcium again was measured. […] Serum calcium measurements were expressed as the difference between the value 30 min before the PTH pulse and 4 hr after peptide infusion was started. […]

Series [5] in a line: Half-life of peptide in serum. Format: in vivo. The settings on record: in words. The source says:
Increased stability of a disulfide bonded peptide of the invention also can be conferred by incorporating a hydrophobic amino acid residue such as phenylalanine at position X1 or X8 or both X1 and X8 in an RGDNTic (SEQ ID NO: 31) or RGDDV (SEQ ID NO: 1) pharmacophore as disclosed herein. The presence of such a residue can stabilize the disulfide bond against enzymatic degradation (see Bauer et al., Life Sciences 31:1133-1140 (1982)). […] In addition, the half-life of a peptide in a subject can be determined, for example, by high performance liquid chromatography (HPLC) of serum samples collected from the subject at various times following administration of the peptide. One skilled in the art would know how to select appropriate elution buffers for HPLC based on the physico-chemical properties of a particular peptide.

Series [6] has as its target T1, αv β3 receptor (Homo sapiens, UniProt P05106+P06756).
T1 construct: The αv β3 receptor was purified from octylglucopyranoside-extracted human placenta; from tissue; host or cells: human placenta
Description: αvβ3 competitive ELISA. It counts as binding. Conditions: IC50 in αvβ3 ELISA / JY cells versus αvβ5 and α5β1 ELISAs; in words. How it is done:
Peptide binding to purified human αv β5 and αv β3, which are VnR's, and to α5 β1 which is a FnR, was determined using competitive ELISA assays as described below.
Peptide binding to purified αv β3 receptor was determined by using a competitive ELISA, in which αv β3 receptor was immobilized and the binding of solubilized VN, in the presence of various concentrations of peptide analogue, was detected using a monoclonal mouse IgG anti-VN antibody and a labelled anti-mouse IgG conjugate.
96 well microtiter plates were coated overnight at RT with 100 μl/well of αv β3 receptor (0.5 μg/ml in 1X TBS, 4 mM octylglucoside, 1 mM CaCl2). The wells were blocked with 200 μl/well of 1% BSA in 1X TBS, 1 mM CaCl2 for at least 30 min. The plates were washed 2× with 1X TBS, 1 mM CaCl2. 50 μl peptide in 1X TBS, 1 mM CaCl2, 0.05% TWEEN 20 (polyoxyethylenesorbitan monolaurate) was added in 10-fold serial dilutions. 50 μl of Vn in the same buffer then was added to each well.
The plates were incubated for 3 hr at RT, then washed 3× with 1X TBS, 0.05% TWEEN 20 (polyoxyethylenesorbitan monolaurate). 100 μl of 8E6 (Telios) diluted to 1:6000 in 1X TBS, 0.05% TWEEN 20 (polyoxyethylenesorbitan monolaurate) was added to the wells and the plates were incubated for 1 hr at RT. Plates were washed 3× with 1X TBS, 0.05% TWEEN 20 (polyoxyethylenesorbitan monolaurate). Affinity purified goat anti-mouse IgG conjugated to horseradish peroxidase (100μl/well; BioRad; Hercules Calif.) was added to each well and incubated for 1 hr at RT. Plates were washed 3× with 1X TBS, 0.05% TWEEN 20 (polyoxyethylenesorbitan monolaurate). 100 μl/well of substrate mixture (10 mg O-phenylenediamine in 25 ml 0.1M citrate-phosphate buffer, pH 5.0, 6 μl 30% H2 O2) was added to the plates and allowed to develop. The development process was stopped by adding 50 μl to 4N H2 SO4 to each well. The plates were read at 490 nm and the data analyzed by four parameter fit.

Series [7] has as its system αv β3 integrin receptor. Conditions: Choi et al. 1994; cited from earlier work.

With `CC(=O)N[C@@H]1C(=O)N[C@@H](Cc2ccccc2)C(=O)N[C@@H](C)C(=O)N[C@@H](CCCNC(=N)N)C(=O)NCC(=O)N[C@@H](CC(=O)O)C(=O)N[C@@H](CC(N)=O)C(=O)N2CCC[C@H]2C(=O)N[C@H](C(N)=O)CSSC1(C)C` [peptide 214] (Ac-[Pen]FARGDNPC-NH2; disulfide 1-9), the “potency (active at a relatively low concentration)” value in series [1] is listed as “particularly potent”.

With Echistatin, the “inhibition of bone resorption” value in series [2] is listed as “inhibits bone resorption”; in series [3], “inhibits bone resorption in vitro”.

Take `CC(C)[C@@H]1NC(=O)[C@H](CC(=O)O)NC(=O)[C@H](CC(=O)O)NC(=O)CNC(=O)[C@H](CCCNC(=N)N)NC(=O)CCSSC[C@@H](C(N)=O)NC1=O` [compound 191] ([Mpa]RGDDVC-NH2; disulfide 1-7): the “PTH-induced rise in serum ionized calcium” value in series [4] is given as “decreased the PTH-induced rise in serum ionized calcium in a dose responsive manner”.

Take `CC(=O)N[C@@H](Cc1ccccc1)C(=O)N[C@H]1CSSC[C@@H](C(N)=O)NC(=O)[C@H](Cc2ccccc2)NC(=O)[C@H]([C@@H](C)O)NC(=O)[C@H](CC(=O)O)NC(=O)CNC(=O)[C@H](CCCNC(=N)N)NC1=O` [peptide 220] (Ac-FCRGDTFC-NH2; disulfide 2-8): the half-life in serum result in series [5] was “relatively long half-life in serum”.

Take `CC(C)[C@@H]1NC(=O)[C@H](CC(=O)O)NC(=O)[C@H](CC(=O)O)NC(=O)CNC(=O)[C@H](CCCNC(=N)N)NC(=O)[C@H](C)NC(=O)[C@H](C)NC(=O)[C@@H](NC(=O)CN)C(C)(C)SSC[C@@H](C(=O)N[C@@H](C)C(N)=O)NC1=O` [compound 814] (H-G[Pen]AARGDDVCA-NH2; disulfide 2-10): the “receptor selectivity for αv β3 compared to αv β5 and α5 β1” value (“receptor selectivity for αv β3” for short) in series [6] is reported as “receptor selective for αv β3; also recorded: particularly receptor selective”.

With `CC[C@H](C)[C@@H]1NC(=O)[C@@H](NC(=O)CN)C(C)(C)SSC[C@@H](C(=O)N[C@@H](C)C(=O)O)NC(=O)[C@H](CC(C)C)NC(=O)[C@H](CC(=O)O)NC(=O)[C@H](CC(=O)O)NC(=O)CNC(=O)[C@H](CCCNC(=N)N)NC(=O)[C@H](C)NC1=O` [compound 448] (H-G[Pen]IARGDDLCA-OH; disulfide 2-10), in series [6], the “receptor selectivity for αv β3” value was “particularly receptor selective”.

`CC(=O)N[C@H]1CSSC(C)(C)[C@@H](C(N)=O)NC(=O)[C@@H]2CCCN2C(=O)[C@H](CC(N)=O)NC(=O)[C@H](CC(=O)O)NC(=O)CNC(=O)[C@H](CCCNC(=N)N)NC1=O` [compound 228] (Ac-CRGDNP[Pen]-NH2; disulfide 1-7): in series [6], the “receptor selectivity for αv β3” value is given as “particularly receptor selective”.

Take `CC(=O)N[C@H]1CSSC[C@@H](C(N)=O)NC(=O)[C@@H]2Cc3ccccc3CN2C(=O)[C@H](CO)NC(=O)[C@H](CC(=O)O)NC(=O)CNC(=O)[C@H](CCCNC(=N)N)NC1=O` [compound 812, Ac-CRGDS(Tic)C--NH2] (Ac-CRGDS[Tic]C-NH2; disulfide 1-7): in series [1], the “potency (active at a relatively low concentration)” value is “particularly potent”. Moreover, in series [1] (minimally essential elements), the “activity (FIG. 2)” value is recorded as “demonstrate activity”.

Turning to G(Pen)GRGDSPCA, the “inhibition of neointimal hyperplasia” value in series [7] is “can inhibit neointimal hyperplasia”.
